Measured values taken from patent publication US11365227B2, “Peptide and pharmaceutical compositions of same for use as an antimicrobial and in cancer treatment” (UNIVERSITAT DE VALÈNCIA, priority 2017, dated 2022).
Where a SMILES comes first, the peptide text is derived from it.

What was measured:
[1] = test system: S. aureus; assay: Scanning electron microscopy of S. aureus cells treated with peptides; assay type: cell-based, Staphylococcus aureus subsp. aureus CECT 4013; conditions: 25 μg/mL, 1 h
Procedure: The cells were prepared in the same way as for the flow cytometry technique and the same aliquots and treatments were performed. The samples were incubated at 37° C. for 1 h. The bacteria were fixed with Karnosky (2.5% paraformaldehyde and 0.5 glutaraldehyde) for 2 h at 4° C. After washing (centrifuging and eliminating the supernatant) they were fixed with 2% osmium tetraoxide for another 2 h, washed again and filtered with a 0.2 μm filter. The cells were then dehydrated in graded ethanol series (30°, 50°, 70°, 90°, 100°) for 10 min in each gradation. To carry out the critical point drying, the ethanol was replaced with liquid CO2, the temperature was increased to accelerate evaporation and the pressure was lowered slowly to conserve the exact shape of the bacteria. Finally, shading with gold palladium was performed for 2 min observing the results in the equipment FEG-SEM HITACHI S4800 at 10 Kv.
Scanning electron microscopy provides high-resolution images used to view the damage caused by the peptides to the bacterial membrane. The cells of S. aureus CECT 4013 were treated with the peptides hBD-3, TcDef3-pep and PaSK at a concentration of 25 μg/mL, for 1 h, and analysed using scanning electron microscopy (FIG. 4). In cells without treatment the circular and uniform form typical of S. aureus was observed, with the intact membrane, while in treated cells various types of morphological alterations can be seen. […] With this treatment small circular structures are observed, smaller than the cells of S. aureus.

[2] = test system: MDA-MB-231 cells; assay: Cell proliferation analysis by flow cytometry with Oregon Green; assay type: cell-based, human; conditions: 50 μM (200 μg/mL)
Procedure: A cell proliferation analysis was performed by flow cytometry for tumour cells marked with the fluorophore Oregon Green subsequently treated with a concentration of 50 μM (200 μg/mL) of the peptide PaSK or with H2O as control. This analysis allowed exploring the use of PaSK in a combined therapeutic approach. The combined use of therapeutic agents meant to inhibit tumour growth and maintenance and agents capable of stimulating the patient's immune response in the treatment of cancer is an alternative therapeutic approach to conventional approaches based only on cytotoxic agents for reducing the impact of the two main problems associated with the exclusive use of cytotoxic agents in cancer therapy: non-specific toxicity and the appearance of resistance.
The reagent Oregon Green is covalently bonded to free amine groups of cells, conferring on same a homogeneous fluorescence that is distributed among the daughter cells in each cell division. As the fluorescence intensity of the cells is approximately halved with each cell division, the final fluorescence intensity after treatment with the peptide and in non-treated control cells compared to the initial fluorescence intensity of the cells provides information on how many cell division cycles have occurred in each case.

[3] = test system: MDA-MB-231 tumour cells; assay: Cell cycle analysis by flow cytometry (CycleTEST PLUS, ModFit LT); assay type: cell-based, human; conditions: 100 μg/mL, 72 h
Procedure: The MDA-MB-231 cells were cultured in dishes with 6 wells with a density of 5×10^4 cells per well, in which 200 μL or 400 μL of PaSK were added (final concentrations 100 μg/mL and 200 μg/mL) or the same volume of the medium (solvent used to dilute the peptide) in the corresponding controls. The cells were incubated at 37° C. for 72 h.
For the cell line analysis, the CycleTEST™ PLUS DNA Reagent Kit (Sigma-Aldrich) was used. Two washes were carried out using citrate buffer (containing sodium citrate, saccharose and dimethyl sulphoxide (DMSO)), centrifuging the samples in each one at 300×g for 5 min, and one final wash was performed in which the number of cells was adjusted to 5×10^5 and centrifuged at 400×g for 5 min, and then adding 250 μL of solution A (containing trypsin in a detergent buffer with spermine tetrahydrochloride), 200 μL of solution B (containing an inhibitor of trypsin and ribonuclease A, in a stabilising buffer of citrate with spermine tetrahydrochloride) and 200 μL of solution C (includes PI and the stabilising buffer with spermine tetrahydrochloride), leaving between the addition of each solution an interval of 10 min at room temperature and performing the last one, before filtering, in a cold chamber and in the dark. The analyses of cell death produced by the peptide and of the stage of cell cycle of the cells were performed with the equipment BD Facs Verse (Becton Dickinson). The cell cycle modelling was performed with the software Modfit LT, version 3.3.11. The experiments were performed in duplicate.
In this example, the cytotoxic and antiproliferative activity of the peptide PaSK is assessed by flow cytometry, performing an analysis of cell viability and an analysis of the cell cycle. After treatment of the tumour cells MDA-MB-231 with 200 μg/mL (cell viability experiments) and 100 μg/mL (analysis of cell cycle) of PaSK the percentage of viable cells was determined, as well as the stage of the cell cycle in which proliferation was stopped.

[4] = test system: MDA-MB-231 tumour cells; assay: Scanning and transmission electron microscopy of tumour cells; assay type: cell-based, human; conditions: 100 μg/mL, 72 h
Procedure: The MDA-MB-231 cells, control or treated with 100 μg/mL of PaSK, were prepared as indicated in the section “Preparation of the samples”. The cells were fixed with Karnosky (2.5% paraformaldehyde and 0.5% glutaraldehyde) for 2 h at 4° C. After washing (centrifuging and eliminating the supernatant) they were fixed with 2% osmium tetraoxide for another 2 h, washed again and filtered with a 0.2 μm filter. The cells were then dehydrated in graded ethanol series (30°, 50°, 70°, 90°, 100°) for 10 min in each gradation. To carry out the critical point drying, the ethanol was replaced with liquid CO2, the temperature was increased to accelerate evaporation and the pressure was lowered slowly to conserve the exact shape of the cells. Finally, shading with gold palladium was performed for 2 min observing the results in the equipment FEG-SEM HITACHI S4800 at 10 Kv. […]
Both scanning electron microscopy and transmission electron microscopy provide high resolution images, which were used to view the morphological and ultrastructural changes caused by the peptide PaSK in the membrane and inside of tumour cells. The MDA-MB-231 cells were treated with the peptide PaSK at a concentration of 100 μg/mL for 72 h, and were analysed using scanning electron microscopy (FIG. 14) and transmission electron microscopy (FIG. 15). […]

## CC[C@H](C)[C@H](NC(=O)[C@H](CCCNC(=N)N)NC(=O)[C@H](CCCNC(=N)N)NC(=O)[C@H](CCCCN)NC(=O)[C@H](CC(N)=O)NC(=O)[C@H](CS)NC(=O)[C@H](Cc1ccc(O)cc1)NC(=O)CNC(=O)CNC(=O)[C@H](CCCNC(=N)N)NC(=O)[C@H](CCCCN)NC(=O)[C@H](CCCNC(=N)N)NC(=O)[C@H](CCCCN)NC(=O)[C@H](CC(C)C)NC(=O)[C@H](CC(C)C)NC(=O)[C@H](CS)NC(=O)[C@H](Cc1c[nH]cn1)NC(=O)[C@H](C)NC(=O)[C@H](C)NC(=O)[C@H](CS)NC(=O)[C@H](C)NC(=O)[C@H](C)NC(=O)[C@H](Cc1c[nH]cn1)NC(=O)[C@H](CC(N)=O)NC(=O)[C@@H](NC(=O)[C@@H](N)CCCCN)C(C)C)C(=O)N[C@@H](CS)C(=O)N[C@H](C(=O)N[C@@H](CS)C(=O)N[C@@H](CCCNC(=N)N)C(=O)N[C@@H](CC(N)=O)C(=O)O)C(C)C [PaSK] (H-KVNHAACAAHCLLKRKRGGYCNKRRICVCRN-OH; N-terminus and C-terminus assumed)
[1]
  biofilm formation, scanning electron microscopy: biofilm produced
  morphological alterations, scanning electron microscopy: complete cell disintegration
[2]
  cell proliferation (Oregon Green fluorescence intensity): inhibits proliferation
[3]
  percentage of cells in stage G1: 57.9%
  percentage of cells in stage G2: 9.0%
  percentage of cells in stage S: 33.2%
[4]
  morphological and ultrastructural changes: significant morphological changes
